Source: US5144010A, “Method of producing monoclonal auto-anti-idiotypic antibodies” (The Trustees of Columbia University in the City of New York, priority 1989, dated 1992)
Like-named read-outs stand apart in the source and are kept apart here.

What was measured:
[1] = test system: anti-steroid Fab fragments; assay: ELISA of 8G11-C6 binding to anti-steroid Fab fragments and its inhibition; parameters: species or system rabbit; conditions: inhibitor pre-incubated (FIG. 9, 10)
Method: FIG. 9 and 10. […] Controls with no inhibitor were included. […] Blanks with only PBS were included as well. The inhibitors used in FIG. 9 were triamcinolone acetonide ( ), triamcinolone-RSA ( ) and rabbit serum albumin ( ).
FIG. 11. […] The method used was similar to that described in the experimental procedure. […] 200λ of the incubation mixture was then added to microtiter wells previously coated with 10 ng anti-steroid Fab fragments and incubated for 2 hrs at 37° C.
The presence of anti-idiotypic antibodies in the hybridoma culture medium were assayed by a double antibody sandwich ELISA. […] After washing twice with 0.01M phosphate buffer - 0.14M NaCl, pH 7.4, containing 0.05% Tween (PBS-tween), the culture medium from the hybridomas was added and incubated at 37° C. for 2 hrs. The wells were washed three times with PBS-tween and 200 microliters of 1:3,000 dilution in PBS-tween of goat anti-mouse IgM-IgG horseradish peroxidase (Tago) was added. After incubating 1 hr at 37° C., the wells were washed three times with PBS-tween and 200 microliters substrate (7 mg o-phenylenediamine dichloride in 10 ml 0.1 M citrate-phosphate buffer, pH 4.8 containing 5 microliters of 30% H2 O2) was added. Depending on the intensity of the color, the reaction was stopped after 5-10 min by the addition of 50 microliters 8N H2 SO4 and the OD determined (Titretek) at 492 nm.

anti-steroid antibodies = assay: Competitive inhibition of binding of [3H]TA to rabbit anti-steroid antibodies (serum, affinity purified, Fab fragments)
Method: After incubating for 11/2 hrs at room temperature add 1 ml cold 5% charcoal/dextran (dil 1:40 with 0.1% gelatin in PBS). Let stand at 4° C. for 10 mins.

glucocorticoid receptor [2] = target: T1, glucocorticoid receptor (Rattus norvegicus, UniProt P06536); assay: biochemical
T1 sequence (P06536 1-795): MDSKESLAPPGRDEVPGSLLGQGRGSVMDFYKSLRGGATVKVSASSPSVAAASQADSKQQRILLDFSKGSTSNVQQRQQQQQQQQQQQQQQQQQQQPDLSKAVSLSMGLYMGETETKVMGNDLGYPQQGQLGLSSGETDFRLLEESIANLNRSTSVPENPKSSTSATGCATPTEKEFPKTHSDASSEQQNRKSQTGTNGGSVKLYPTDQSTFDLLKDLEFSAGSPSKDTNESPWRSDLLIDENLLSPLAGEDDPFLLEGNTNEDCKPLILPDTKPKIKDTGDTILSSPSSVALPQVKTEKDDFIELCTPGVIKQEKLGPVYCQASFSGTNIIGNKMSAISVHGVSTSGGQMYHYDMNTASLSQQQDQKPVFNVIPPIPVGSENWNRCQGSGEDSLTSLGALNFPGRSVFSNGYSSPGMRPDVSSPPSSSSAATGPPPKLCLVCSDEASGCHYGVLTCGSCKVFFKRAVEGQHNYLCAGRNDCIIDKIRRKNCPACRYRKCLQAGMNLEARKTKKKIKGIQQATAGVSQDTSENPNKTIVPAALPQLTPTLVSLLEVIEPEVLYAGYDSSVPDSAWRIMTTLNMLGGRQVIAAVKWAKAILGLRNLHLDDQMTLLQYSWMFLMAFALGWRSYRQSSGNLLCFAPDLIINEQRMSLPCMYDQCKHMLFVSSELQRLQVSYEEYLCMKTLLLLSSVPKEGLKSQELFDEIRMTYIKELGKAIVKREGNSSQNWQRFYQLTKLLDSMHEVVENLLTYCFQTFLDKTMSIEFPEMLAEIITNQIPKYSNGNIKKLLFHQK
Method: (§3) Incubate in a total volume of 500 microliters, for 2 hrs at 4° C., 20 mM HEPES buffer containing 50 mM NaCl, 1 mM EDTA, 10% glycerol 0.1 mM DTT pH 7.6, 10 nM [^3 H]TA and 200 microliters rat liver cytosol. Add 250 microliters 5% charcoal/dextran suspension and after 10 min centrifuge and determine the radioactivity in 200 λ aliquot.
(§4) The results tabulated in table I below represents the amount of unlabeled steroid that can displace 50% binding of 1×10^-8 M [^3 H]TA. Binding in the absence of competing steroid was taken as 100%.
(§5) Table I: Competitive inhibition of binding of [^3 H] triamcinolone to
(§6) glucocorticoid receptor included 100 ml of rat liver cytosol. 10^-8 M
(§7) [^3 H]TA and increasing concentrations of steroid in a total volume o
(§8) 200 ml. After incubating for 2 hrs at 4° C., 100 5%
(§9) charcoal/dextran was added. Let stand for 5 mins at 4° C. Make up
(§10) to 1 ml with PBS and after 5 mins centrifuge down charcoal. Decant
(§11) supernatant into scintillation vials. Add 10 ml hydrofluor and count.

glucocorticoid receptor [3] = target: T1, glucocorticoid receptor; assay: Competitive inhibition of binding of [3H]triamcinolone acetonide to glucocorticoid receptor in rat liver cytosol; conditions: apparent Kd of the glucocorticoid receptor, competitive binding with [3H]TA as tracer (FIG. 6, Table I)
Method: as §3, §4, §5, §6, §7, §8, §9, §10, §11

[4] = target: T2, partially purified glucocorticoid receptor (Rattus norvegicus, UniProt P06536); assay: ELISA of 8G11-C6 binding to partially purified glucocorticoid receptor and its inhibition; conditions: ELISA (FIG. 13)
T2 sequence (P06536 1-795): T1 sequence (P06536 1-795)
Method: FIG. 12. […] 200 microliters containing either 1.08 micrograms ( ) or 0.54 micrograms ( ) of a partially purified receptor preparation in 0.1 M NaHCO3 were added to the wells of the polystyrene plastic and incubated overnight at 4° C. […] See methods section for the methodology employed.
FIG. 13. […] 200 microliters containing 0.54 micrograms protein of a partially purified receptor preparation in 0.1 M NaHCO3 pH 9.3 was added to the wells of polystyrene plates. These were incubated for 2 hrs at 37° C. Washed 2× with PBS containing 0.02% Tween. […] See methods for the methodology employed. The inhibitors used were triamcinolone acetonide ( ), rabbit serum albumin ( ) and triamcinolone-RSA ( ).

[5] = target: anti-steroid Fab fragments; assay: Scatchard analysis of tritiated steroid binding to Fab fragments of affinity purified anti-steroid antibodies; parameters: species or system rabbit; conditions: tritiated ligand, read-out: Kd for Fab fragments of the anti-steroid from Scatchard plots
Method: FIG. 5. Scatchard plot of the binding of [^3 H]triamcinolone acetonide to Fab fragments of affinity purified anti-steroid antibodies. Fab fragments (0.227 micrograms) were incubated with increasing concentrations of [^3 H]triamcinolone acetonide (0.4-62.5 nM) in the presence of 0.01M phosphate buffered saline pH 7.4 containing 0.1% gelatin in a total volume of 200 microliters. Total and non-specific binding (50 micromolar triamcinolone acetonide) were determined for each of the [^3 H]triamcinolone acetonide levels and all points were in duplicate. After incubating 1 hr at room temperature, add 1 ml cold 5% charcoal/dextran (diluted 1:40 in 0.01M PBS containing 0.1% gelatin) and let stand on ice for 10 min. Centrifuge down the charcoal/dextran, decant the supernatant into scintillation vials and determine the radioactivity.

rabbit anti-BisQ = assay: Enzyme immunoassay of F8-D5 binding to rabbit anti-BisQ and its inhibition; conditions: read-out: concentration giving 50% inhibition of binding of F8-D5 to rabbit anti-BisQ; stated as a similar concentration
Method: (§1) Wells of polystyrene plates (Corning) were then coated with 150 microliters of either 400 ng/ml purified rabbit anti-BisQ (1) in 0.1 M NaHCO3, pH 9.3, or […] purified Torpedo receptor in the same buffer. Coating was accomplished by incubating for 2 h at 37° C. After two washings with 0.01 M phosphate buffer:0.14 M NaCl, pH 7.2, containing 0.05% v/v Tween-20 (PBS-Tween), the wells were exposed to the various concentrations of F8-D5 in PBS-Tween. After incubation at 37° C. for 2h, the wells were washed three times with PBS-Tween and then filled with 200 microliters of 1:1,000 dilution in PBS-Tween of goat anti-mouse immunoglobulin labeled with horseradish -peroxidase (Sigma). After incubation at 37° C. for 1 h, the wells were washed three times with PBS-Tween. Peroxidase was assayed by incubation with o-phenylenediamine dihydrochloride (7 mg in 10 ml 0.1 M citrate-phosphate buffer, pH 4.8, containing 5 microliters of 30% H2 O2) for 10 min. The reaction was stopped with 50 microliters per well of 4 M H2 SO4 and the color read at 492 nm in a Multiskan Titertek apparatus. Values were corrected for a PBS blank which was never higher than 0.150. (The above conditions were not chosen for optimal sensitivity but for speed and convenience.)
(§2) To confirm that the same monoclonal antibody bound receptor and anti-BisQ, reciprocal inhibition experiments were carried. […]

Torpedo AChR = target: T3, Torpedo AChR (Tetronarce californica, UniProt P02710+P02714+P02718); assay: Enzyme immunoassay of F8-D5 binding to Torpedo AChR and its inhibition
T3 construct: purified Torpedo AChR preparation; from tissue; host or cells: Torpedo electric organ (inferred, the usual source of purified Torpedo receptor)
Method: as §1, §2

[6] = unprocessed rabbit serum 540 dil 1:1000, 1×10^-8 M [3H]TA
[7] = affinity purified anti-steroid 1.3 micrograms, 1×10^-8 M [3H]TA, read-out: Affinity purified anti-steroid: amount of unlabeled steroid that can displace 50% binding of [3H]TA
[8] = anti-steroid Fab fragments 0.18 micrograms, 1×10^-8 M [3H]TA, read-out: Rabbit serum 541 Fab fragments: amount of unlabeled steroid that can displace 50% binding of [3H]TA
[9] = unprocessed rabbit serum 540 dil 1:1000, 1×10^-8 M [3H]TA, read-out: Rabbit Serum 540 Unprocessed: amount of unlabeled steroid that can displace 50% binding of [3H]TA

T3 sequence (P02710 25-461): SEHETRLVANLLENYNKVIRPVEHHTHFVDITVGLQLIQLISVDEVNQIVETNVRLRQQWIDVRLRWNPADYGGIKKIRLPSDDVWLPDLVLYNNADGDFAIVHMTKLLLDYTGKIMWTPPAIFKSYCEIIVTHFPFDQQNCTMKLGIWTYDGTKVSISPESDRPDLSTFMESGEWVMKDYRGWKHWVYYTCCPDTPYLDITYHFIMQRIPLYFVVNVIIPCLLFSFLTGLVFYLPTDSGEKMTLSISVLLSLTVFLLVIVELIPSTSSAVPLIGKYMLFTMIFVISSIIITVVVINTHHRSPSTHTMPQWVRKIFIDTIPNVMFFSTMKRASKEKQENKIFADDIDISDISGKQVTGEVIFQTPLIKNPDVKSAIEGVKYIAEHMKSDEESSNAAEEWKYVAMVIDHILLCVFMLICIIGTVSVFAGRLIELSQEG
T3 sequence (P02712 25-493 partner): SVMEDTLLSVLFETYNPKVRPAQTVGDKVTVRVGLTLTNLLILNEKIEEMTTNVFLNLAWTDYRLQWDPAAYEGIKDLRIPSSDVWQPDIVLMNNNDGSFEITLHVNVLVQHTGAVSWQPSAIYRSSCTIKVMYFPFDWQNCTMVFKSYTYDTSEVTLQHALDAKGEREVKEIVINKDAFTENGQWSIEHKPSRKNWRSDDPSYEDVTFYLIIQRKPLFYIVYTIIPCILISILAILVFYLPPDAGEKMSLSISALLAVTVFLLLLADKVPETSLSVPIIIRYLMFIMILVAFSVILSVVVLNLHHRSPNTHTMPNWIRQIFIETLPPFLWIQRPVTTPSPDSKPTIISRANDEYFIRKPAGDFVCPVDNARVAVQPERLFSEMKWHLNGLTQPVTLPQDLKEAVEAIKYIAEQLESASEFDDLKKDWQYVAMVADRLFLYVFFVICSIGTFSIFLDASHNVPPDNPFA
T3 sequence (P02714 18-506): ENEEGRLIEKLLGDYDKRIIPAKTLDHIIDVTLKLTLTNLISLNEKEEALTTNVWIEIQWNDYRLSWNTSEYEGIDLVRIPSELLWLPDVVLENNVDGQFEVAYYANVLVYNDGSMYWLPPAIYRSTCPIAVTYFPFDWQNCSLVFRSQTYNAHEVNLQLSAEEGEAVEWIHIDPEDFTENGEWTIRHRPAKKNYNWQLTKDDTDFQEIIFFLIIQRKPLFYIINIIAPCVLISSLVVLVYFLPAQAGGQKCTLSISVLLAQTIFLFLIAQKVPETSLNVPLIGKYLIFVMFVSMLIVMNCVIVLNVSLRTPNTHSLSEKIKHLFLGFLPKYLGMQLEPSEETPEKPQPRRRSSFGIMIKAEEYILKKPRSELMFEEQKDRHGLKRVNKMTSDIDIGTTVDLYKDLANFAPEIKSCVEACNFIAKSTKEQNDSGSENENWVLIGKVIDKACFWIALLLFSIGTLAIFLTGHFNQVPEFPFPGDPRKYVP
T3 sequence (P02718 22-522): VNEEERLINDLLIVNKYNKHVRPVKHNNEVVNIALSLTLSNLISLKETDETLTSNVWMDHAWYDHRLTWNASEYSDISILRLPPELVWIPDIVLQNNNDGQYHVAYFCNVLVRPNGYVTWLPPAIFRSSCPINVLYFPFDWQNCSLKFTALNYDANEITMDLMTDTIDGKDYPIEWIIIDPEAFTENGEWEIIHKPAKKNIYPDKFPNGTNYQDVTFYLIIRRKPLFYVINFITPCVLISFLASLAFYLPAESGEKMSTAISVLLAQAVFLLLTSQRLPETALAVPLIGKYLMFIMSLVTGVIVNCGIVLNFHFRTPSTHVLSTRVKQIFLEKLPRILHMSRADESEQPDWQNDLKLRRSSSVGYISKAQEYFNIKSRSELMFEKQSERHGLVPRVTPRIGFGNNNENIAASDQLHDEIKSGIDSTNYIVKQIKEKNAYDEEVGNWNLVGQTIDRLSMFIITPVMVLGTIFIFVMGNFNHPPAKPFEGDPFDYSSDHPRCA

Molecule | effect on the binding of 8G11-C6 to anti-steroid Fab fragments [1] | IC50 (anti-steroid antibodies; [7]) [µM] | IC50 (anti-steroid antibodies; [8]) [µM] | IC50 (anti-steroid antibodies; [9]) [µM] | also measured
rabbit serum albumin: carrier protein tested alone as inhibitor | did not affect |  |  |  | 
C[C@]12CCC(=O)C[C@@H]1CC[C@@H]1[C@@H]2CC[C@]2(C)[C@@H](O)CC[C@@H]12 [Dihydrotestosterone] |  |  |  |  | Rabbit Serum 540 Unprocessed: amount of unlabeled steroid that can displace 50% binding of [3H]TA (anti-steroid antibodies; [6]): no effect
CC1(C)O[C@@H]2C[C@H]3[C@@H]4CCC5=CC(=O)C=C[C@]5(C)[C@@]4(F)[C@@H](O)C[C@]3(C)[C@]2(C(=O)CO)O1 [triamcinolone acetonide] | did not affect |  |  |  | Kd (anti-steroid antibodies; competitive binding with [3H]TA as tracer (FIG. 6, Table I), read-out: apparent Kd of the anti-steroid in unprocessed rabbit serum): 0.0032 µM; Kd (glucocorticoid receptor [2]): 0.015 µM; Kd (glucocorticoid receptor [3]): 0.005 µM
C[C@]12CCC(=O)C=C1CC[C@@H]1[C@@H]2[C@@H](O)C[C@@]2(C)[C@H]1CC[C@]2(O)C(=O)CO [Hydrocortisone] |  | 100 | 100 | 5 | 
C[C@]12C=CC(=O)C=C1CC[C@H]1[C@@H]3C[C@@H](O)[C@](O)(C(=O)CO)[C@@]3(C)C[C@H](O)[C@@]12F [Triamcinolone, 9-fluoro-11β, α16 , 17, 21-tetrahydroxypregna-1,4-diene-3, 20-dione] | slight activation of binding | 0.015 | 0.015 | 0.0032 | IC50 (glucocorticoid receptor [2]): 0.005 µM
C[C@]12CC[C@@H]3c4ccc(O)cc4CC[C@H]3[C@@H]1CC[C@@H]2O [estradiol-17β] | slight activation of binding |  |  |  | effect on the binding of 8G11-C6 to partially purified glucocorticoid receptor [4]: no effect
C[C@@H]1C[C@H]2[C@@H]3CCC4=CC(=O)C=C[C@]4(C)[C@@]3(F)[C@@H](O)C[C@]2(C)[C@@]1(O)C(=O)CO [Dexamethasone] |  | 0.62 | 0.63 | 0.12 | Kd [5]: 0.15 µM
C[N+](C)(C)Cc1cccc(/N=N/c2cccc(C[N+](C)(C)C)c2)c1 [BisQ, trans-3,3'-bis(α-trimethylammonium)azotoluene] |  |  |  |  | IC50 (rabbit anti-BisQ): ~40 µM; IC50 (Torpedo AChR): 40 µM
C[C@]12CC[C@H]3[C@@H](CCC4=CC(=O)CC[C@@]43C)[C@@H]1CC[C@@H]2O [Testosterone] | slight activation of binding |  |  |  | Affinity purified anti-steroid: amount of unlabeled steroid that can displace 50% binding of [3H]TA (anti-steroid antibodies; affinity purified anti-steroid 1.3 micrograms, 1×10^-8 M [3H]TA): not inhibited; Rabbit serum 541 Fab fragments: amount of unlabeled steroid that can displace 50% binding of [3H]TA (anti-steroid antibodies; anti-steroid Fab fragments 0.18 micrograms, 1×10^-8 M [3H]TA): not inhibited; Rabbit Serum 540 Unprocessed: amount of unlabeled steroid that can displace 50% binding of [3H]TA (anti-steroid antibodies; [6]): not inhibited; effect on the binding of 8G11-C6 to partially purified glucocorticoid receptor [4]: only a slight inhibitory effect
CC(=O)[C@H]1CC[C@H]2[C@@H]3CCC4=CC(=O)CC[C@]4(C)[C@H]3CC[C@]12C [Progesterone] |  | 100 | 100 | 100 | 
C[C@]12C[C@H](O)[C@H]3[C@@H](CCC4=CC(=O)CC[C@@]43C)[C@@H]1CC[C@@H]2C(=O)CO [Corticosterone] |  | 100 | 100 | 6.3 | 
